Reference: article PMC4577729, “7-(Pyrazol-4-yl)-3H-imidazo[4,5-b]pyridine-based derivatives for kinase inhibition: Co-crystallisation studies with Aurora-A reveal distinct differences in the orientation of the pyrazole N1-substituent” (Bioorganic & Medicinal Chemistry Letters, 2015)

Key:
Experiment in all cases: Kinase selectivity profiling
Type in all cases: biochemical
BRSK1 = BRSK1 (Homo sapiens, UniProt Q8TDC3); details: 1 µM, assay duplicates
Experimental: (§1) [20] Kinase selectivity profiling for compounds 7a, 7d, 14d and 14g was carried out at the International Centre for Protein Kinase Profiling, Division of Signal Transduction Therapy, University of Dundee.
(§2) Table S1: Kinase selectivity profiling of compounds 7a and 7d in a 102-kinase panel screened at a concentration of 1 µM.
(§3) Table S2: Kinase selectivity profiling of compounds 14d and 14g in a 105-kinase panel screened at a concentration of 1 µM.

MSK1 = MSK1 (Homo sapiens, UniProt O75582); details: 1 µM, assay duplicates
Experimental: as §1, §2, §3

p38a MAPK = p38a MAPK (Homo sapiens, UniProt Q16539); details: 1 µM, assay duplicates
Experimental: as §1, §2, §3

IR = IR (Homo sapiens, UniProt P06213); details: 1 µM, assay duplicates
Experimental: as §1, §2, §3

CHK2 = CHK2 (Homo sapiens, UniProt O96017); details: 1 µM, assay duplicates
Experimental: as §1, §2, §3

TrkA = TrkA (Homo sapiens, UniProt P04629); details: for TrkA inhibition: 1 μM; for TrkA % activity remaining: 1 µM, assay duplicates
Experimental: as §1, §2, §3

CSK = CSK (Homo sapiens, UniProt P41240); details: 1 µM, assay duplicates
Experimental: as §1, §2, §3

EPH-A2 = EPH-A2 (Homo sapiens, UniProt P29317); details: 1 µM, assay duplicates
Experimental: as §1, §2, §3

HIPK1 = HIPK1 (Homo sapiens, UniProt Q86Z02); details: 1 µM, assay duplicates
Experimental: as §1, §2, §3

ERK2 = ERK2 (Homo sapiens, UniProt P28482); details: 1 µM, assay duplicates
Experimental: as §1, §2, §3

SGK1 = SGK1 (Homo sapiens, UniProt O00141); details: 1 µM, assay duplicates
Experimental: as §1, §2, §3

TTK = TTK (Homo sapiens, UniProt P33981); details: 1 µM, assay duplicates
Experimental: as §1, §2, §3

CAMK1 = CAMK1 (Homo sapiens, UniProt Q14012); details: 1 µM, assay duplicates
Experimental: as §1, §2, §3

PLK1 = PLK1 (Homo sapiens, UniProt P53350); details: 1 µM, assay duplicates
Experimental: as §1, §2, §3

PAK2 = PAK2 (Homo sapiens, UniProt Q13177); details: 1 µM, assay duplicates
Experimental: as §1, §2, §3

CK2 = CK2 (Homo sapiens, UniProt P68400); details: 1 µM, assay duplicates
Experimental: as §1, §2, §3

MAPKAP-K3 = MAPKAP-K3 (Homo sapiens, UniProt Q16644); details: 1 µM, assay duplicates
Experimental: as §1, §2, §3

Aurora A = molecular target: T1, Aurora A (Homo sapiens, UniProt O14965); details: 1 µM, assay duplicates
T1 sequence (O14965 1-403): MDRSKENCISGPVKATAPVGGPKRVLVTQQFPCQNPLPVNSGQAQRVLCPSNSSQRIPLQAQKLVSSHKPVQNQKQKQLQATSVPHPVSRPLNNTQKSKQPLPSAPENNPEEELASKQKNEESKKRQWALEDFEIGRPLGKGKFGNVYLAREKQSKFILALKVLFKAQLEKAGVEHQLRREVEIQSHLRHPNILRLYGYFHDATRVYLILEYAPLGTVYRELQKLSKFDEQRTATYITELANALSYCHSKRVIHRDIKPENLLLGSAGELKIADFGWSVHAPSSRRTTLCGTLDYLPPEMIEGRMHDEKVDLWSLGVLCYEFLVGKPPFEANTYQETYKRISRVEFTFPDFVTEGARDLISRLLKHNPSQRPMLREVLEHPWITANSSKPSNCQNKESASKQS
Experimental: as §1, §2, §3

IGF-1R = IGF-1R (Homo sapiens, UniProt P08069); details: 1 µM, assay duplicates
Experimental: as §1, §2, §3

PRK2 = PRK2 (Homo sapiens, UniProt Q16513); details: 1 µM, assay duplicates
Experimental: as §1, §2, §3

S6K1 = S6K1 (Homo sapiens, UniProt P23443); details: 1 µM, assay duplicates
Experimental: as §1, §2, §3

SRPK1 = SRPK1 (Homo sapiens, UniProt Q96SB4); details: 1 µM, assay duplicates
Experimental: as §1, §2, §3

DYRK3 = DYRK3 (Homo sapiens, UniProt O43781); details: 1 µM, assay duplicates
Experimental: as §1, §2, §3

PKD1 = PKD1 (Homo sapiens, UniProt Q15139); details: 1 µM, assay duplicates
Experimental: as §1, §2, §3

MLK1 = MLK1 (Homo sapiens, UniProt P80192); details: for MLK1 inhibition: 1 μM; for MLK1 % activity remaining: 1 µM, assay duplicates
Experimental: as §1, §2, §3

MAPKAP-K2 = MAPKAP-K2 (Homo sapiens, UniProt P49137); details: 1 µM, assay duplicates
Experimental: as §1, §2, §3

MNK1 = MNK1 (Homo sapiens, UniProt Q9BUB5); details: 1 µM, assay duplicates
Experimental: as §1, §2, §3

DYRK1A = DYRK1A (Homo sapiens, UniProt Q13627); details: 1 µM, assay duplicates
Experimental: as §1, §2, §3

NEK6 = NEK6 (Homo sapiens, UniProt Q9HC98); details: 1 µM, assay duplicates
Experimental: as §1, §2, §3

MEKK1 = MEKK1 (Homo sapiens, UniProt Q13233); details: 1 µM, assay duplicates
Experimental: as §1, §2, §3

Lck = Lck (Homo sapiens, UniProt P06239); details: 1 µM, assay duplicates
Experimental: as §1, §2, §3

PDK1 = PDK1 (Homo sapiens, UniProt O15530); details: 1 µM, assay duplicates
Experimental: as §1, §2, §3

Src = Src (Homo sapiens, UniProt P12931); details: 1 µM, assay duplicates
Experimental: as §1, §2, §3

Sequence of TrkA (P04629 33-796): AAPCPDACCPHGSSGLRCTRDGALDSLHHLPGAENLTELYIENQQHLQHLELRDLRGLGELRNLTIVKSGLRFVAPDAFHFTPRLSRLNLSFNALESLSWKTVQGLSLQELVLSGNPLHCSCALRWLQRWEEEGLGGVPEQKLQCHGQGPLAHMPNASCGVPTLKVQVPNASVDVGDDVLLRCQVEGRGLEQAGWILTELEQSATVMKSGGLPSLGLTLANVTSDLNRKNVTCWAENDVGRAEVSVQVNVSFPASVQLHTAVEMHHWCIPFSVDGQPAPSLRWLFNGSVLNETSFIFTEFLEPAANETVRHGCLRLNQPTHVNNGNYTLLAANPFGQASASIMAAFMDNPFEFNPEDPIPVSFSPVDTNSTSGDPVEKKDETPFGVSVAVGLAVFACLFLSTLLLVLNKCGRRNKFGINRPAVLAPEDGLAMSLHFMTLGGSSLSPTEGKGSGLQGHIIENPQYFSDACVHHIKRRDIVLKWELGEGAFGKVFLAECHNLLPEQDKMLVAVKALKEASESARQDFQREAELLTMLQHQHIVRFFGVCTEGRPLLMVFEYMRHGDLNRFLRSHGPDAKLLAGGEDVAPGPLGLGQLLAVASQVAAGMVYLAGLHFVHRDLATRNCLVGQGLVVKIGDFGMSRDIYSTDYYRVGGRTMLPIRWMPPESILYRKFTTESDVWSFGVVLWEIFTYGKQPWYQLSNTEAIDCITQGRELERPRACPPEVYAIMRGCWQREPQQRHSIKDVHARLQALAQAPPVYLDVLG
Sequence of MLK1 (P80192 whole entry): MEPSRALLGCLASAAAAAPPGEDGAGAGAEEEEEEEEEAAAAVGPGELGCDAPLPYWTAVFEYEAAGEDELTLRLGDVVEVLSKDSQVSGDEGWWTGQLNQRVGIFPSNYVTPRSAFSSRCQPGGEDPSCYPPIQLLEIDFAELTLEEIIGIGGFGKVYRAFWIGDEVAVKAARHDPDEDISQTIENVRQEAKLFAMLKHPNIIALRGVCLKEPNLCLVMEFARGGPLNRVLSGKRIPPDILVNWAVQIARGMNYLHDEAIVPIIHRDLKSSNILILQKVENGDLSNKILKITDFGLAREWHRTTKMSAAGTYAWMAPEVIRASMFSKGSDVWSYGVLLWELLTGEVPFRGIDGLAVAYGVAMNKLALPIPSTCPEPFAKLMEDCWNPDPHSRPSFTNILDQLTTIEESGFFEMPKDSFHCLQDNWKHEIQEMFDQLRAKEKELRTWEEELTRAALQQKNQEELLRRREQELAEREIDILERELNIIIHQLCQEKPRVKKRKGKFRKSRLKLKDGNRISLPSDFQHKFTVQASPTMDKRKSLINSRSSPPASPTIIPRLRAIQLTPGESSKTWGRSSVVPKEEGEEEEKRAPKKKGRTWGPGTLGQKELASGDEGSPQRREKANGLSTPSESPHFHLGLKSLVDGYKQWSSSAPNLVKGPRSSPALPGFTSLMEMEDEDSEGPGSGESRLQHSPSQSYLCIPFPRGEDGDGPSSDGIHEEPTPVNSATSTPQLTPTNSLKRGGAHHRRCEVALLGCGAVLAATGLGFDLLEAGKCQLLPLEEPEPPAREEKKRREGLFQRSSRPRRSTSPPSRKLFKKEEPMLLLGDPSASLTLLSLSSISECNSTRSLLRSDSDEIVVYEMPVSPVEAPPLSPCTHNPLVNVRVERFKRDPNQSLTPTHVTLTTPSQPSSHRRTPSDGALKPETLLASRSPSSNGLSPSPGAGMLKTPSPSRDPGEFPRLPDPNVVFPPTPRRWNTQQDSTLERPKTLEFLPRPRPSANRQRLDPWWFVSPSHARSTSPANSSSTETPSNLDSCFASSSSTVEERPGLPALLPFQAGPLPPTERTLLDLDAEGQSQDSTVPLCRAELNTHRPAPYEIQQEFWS
Sequence of ERK2 (P28482 whole entry): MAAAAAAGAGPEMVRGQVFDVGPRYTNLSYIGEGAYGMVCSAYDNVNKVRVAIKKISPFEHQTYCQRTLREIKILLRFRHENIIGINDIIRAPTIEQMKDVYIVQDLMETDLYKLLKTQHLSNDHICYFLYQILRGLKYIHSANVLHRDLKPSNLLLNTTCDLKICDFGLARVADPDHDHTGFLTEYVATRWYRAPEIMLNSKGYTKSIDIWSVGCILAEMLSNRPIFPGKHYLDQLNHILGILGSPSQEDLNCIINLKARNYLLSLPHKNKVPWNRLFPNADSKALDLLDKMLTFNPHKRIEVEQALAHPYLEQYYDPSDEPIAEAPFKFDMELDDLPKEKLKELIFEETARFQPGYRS
Sequence of MAPKAP-K2 (P49137 whole entry): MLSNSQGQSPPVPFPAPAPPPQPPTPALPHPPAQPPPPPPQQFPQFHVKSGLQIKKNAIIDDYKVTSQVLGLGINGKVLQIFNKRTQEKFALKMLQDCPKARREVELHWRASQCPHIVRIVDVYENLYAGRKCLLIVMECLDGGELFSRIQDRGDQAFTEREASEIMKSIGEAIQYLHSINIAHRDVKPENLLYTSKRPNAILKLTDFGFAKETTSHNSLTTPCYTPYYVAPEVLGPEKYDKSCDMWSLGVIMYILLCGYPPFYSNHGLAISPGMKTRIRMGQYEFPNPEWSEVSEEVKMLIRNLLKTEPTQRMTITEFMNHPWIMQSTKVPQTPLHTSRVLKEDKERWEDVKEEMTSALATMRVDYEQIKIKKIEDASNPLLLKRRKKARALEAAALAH
Sequence of TTK (P33981 whole entry): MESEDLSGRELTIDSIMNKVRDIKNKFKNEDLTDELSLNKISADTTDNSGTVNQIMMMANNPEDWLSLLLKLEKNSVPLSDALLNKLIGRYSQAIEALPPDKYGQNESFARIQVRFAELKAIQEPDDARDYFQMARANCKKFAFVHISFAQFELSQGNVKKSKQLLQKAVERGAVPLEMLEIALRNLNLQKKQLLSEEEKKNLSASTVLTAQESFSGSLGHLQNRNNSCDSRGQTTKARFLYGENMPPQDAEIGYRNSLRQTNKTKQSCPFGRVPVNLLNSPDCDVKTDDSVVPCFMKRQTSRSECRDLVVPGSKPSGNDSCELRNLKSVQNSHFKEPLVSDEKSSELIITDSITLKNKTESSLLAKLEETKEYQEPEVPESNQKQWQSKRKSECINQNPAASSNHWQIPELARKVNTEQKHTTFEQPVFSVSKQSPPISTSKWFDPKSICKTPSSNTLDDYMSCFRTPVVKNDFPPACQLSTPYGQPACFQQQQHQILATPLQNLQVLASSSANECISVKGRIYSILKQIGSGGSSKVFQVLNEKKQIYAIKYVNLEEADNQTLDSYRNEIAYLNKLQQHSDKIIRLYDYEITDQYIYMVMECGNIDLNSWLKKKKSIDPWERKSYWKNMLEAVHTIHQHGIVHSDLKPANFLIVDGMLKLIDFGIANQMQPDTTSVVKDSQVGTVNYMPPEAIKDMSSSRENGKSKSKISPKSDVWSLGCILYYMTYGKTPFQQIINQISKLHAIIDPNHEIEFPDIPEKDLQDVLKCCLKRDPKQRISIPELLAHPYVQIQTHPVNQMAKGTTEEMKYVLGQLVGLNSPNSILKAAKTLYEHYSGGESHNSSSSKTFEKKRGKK
Sequence of Src (P12931 whole entry): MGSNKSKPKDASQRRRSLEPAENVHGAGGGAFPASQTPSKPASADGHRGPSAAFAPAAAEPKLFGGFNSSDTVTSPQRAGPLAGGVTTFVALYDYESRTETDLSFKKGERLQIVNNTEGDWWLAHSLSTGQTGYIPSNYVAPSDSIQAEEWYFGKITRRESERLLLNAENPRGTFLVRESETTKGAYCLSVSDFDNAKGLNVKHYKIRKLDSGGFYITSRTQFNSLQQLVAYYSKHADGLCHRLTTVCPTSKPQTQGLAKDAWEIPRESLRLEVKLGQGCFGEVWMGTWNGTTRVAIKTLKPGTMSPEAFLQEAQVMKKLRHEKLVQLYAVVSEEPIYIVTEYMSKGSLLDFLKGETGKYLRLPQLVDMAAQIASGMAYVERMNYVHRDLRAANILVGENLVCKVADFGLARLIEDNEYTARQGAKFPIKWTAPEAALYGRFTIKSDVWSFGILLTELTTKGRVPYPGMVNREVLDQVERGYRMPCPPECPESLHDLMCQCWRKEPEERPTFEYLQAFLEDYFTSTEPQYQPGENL
Sequence of NEK6 (Q9HC98 whole entry): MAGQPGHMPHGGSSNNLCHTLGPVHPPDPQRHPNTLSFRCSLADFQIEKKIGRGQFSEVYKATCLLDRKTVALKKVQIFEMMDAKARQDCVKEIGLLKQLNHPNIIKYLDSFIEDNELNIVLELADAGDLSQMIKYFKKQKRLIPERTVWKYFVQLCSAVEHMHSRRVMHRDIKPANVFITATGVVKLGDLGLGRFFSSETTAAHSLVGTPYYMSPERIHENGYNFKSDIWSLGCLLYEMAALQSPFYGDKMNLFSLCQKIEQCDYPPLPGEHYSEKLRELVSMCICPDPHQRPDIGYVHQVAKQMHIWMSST
Sequence of DYRK3 (O43781 whole entry): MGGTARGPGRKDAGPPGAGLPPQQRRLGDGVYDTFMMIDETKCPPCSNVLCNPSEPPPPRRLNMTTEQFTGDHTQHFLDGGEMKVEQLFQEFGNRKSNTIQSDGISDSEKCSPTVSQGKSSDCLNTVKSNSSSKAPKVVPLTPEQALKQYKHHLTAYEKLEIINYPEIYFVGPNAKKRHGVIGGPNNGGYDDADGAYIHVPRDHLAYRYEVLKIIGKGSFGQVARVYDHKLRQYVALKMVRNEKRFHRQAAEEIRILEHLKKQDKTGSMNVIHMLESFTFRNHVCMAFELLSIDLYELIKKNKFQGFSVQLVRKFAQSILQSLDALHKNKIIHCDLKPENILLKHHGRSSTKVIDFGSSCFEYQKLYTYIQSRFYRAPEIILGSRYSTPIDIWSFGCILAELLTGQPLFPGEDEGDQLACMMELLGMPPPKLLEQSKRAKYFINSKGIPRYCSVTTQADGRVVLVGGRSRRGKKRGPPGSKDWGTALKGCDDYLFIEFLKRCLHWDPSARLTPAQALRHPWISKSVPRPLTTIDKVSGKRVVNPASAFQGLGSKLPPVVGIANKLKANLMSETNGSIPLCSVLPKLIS

Structure (SMILES) | BRSK1 % activity remaining (BRSK1) [%] | MSK1 % activity remaining (MSK1) [%] | p38a MAPK % activity remaining (p38a MAPK) [%] | IR % activity remaining (IR) [%] | CHK2 % activity remaining (CHK2) [%] | TrkA inhibition (TrkA) | TrkA % activity remaining (TrkA) [%] | CSK % activity remaining (CSK) [%] | EPH-A2 % activity remaining (EPH-A2) [%] | HIPK1 % activity remaining (HIPK1) [%] | ERK2 % activity remaining (ERK2) [%] | SGK1 % activity remaining (SGK1) [%] | TTK % activity remaining (TTK) [%] | CAMK1 % activity remaining (CAMK1) [%] | PLK1 % activity remaining (PLK1) [%] | PAK2 % activity remaining (PAK2) [%] | CK2 % activity remaining (CK2) [%] | MAPKAP-K3 % activity remaining (MAPKAP-K3) [%] | Aurora A % activity remaining (Aurora A) [%] | IGF-1R % activity remaining (IGF-1R) [%] | further results
Cc1cc(Cn2cc(-c3c(Cl)cnc4[nH]c(-c5cn(C)nc5C)nc34)cn2)no1 [Compound 14d] | 61 | 61 | 85 | 53 | 32 | ≥ 80% | 15 | 83 | 57 | 22 | 32 | 65 | 42 | 77 | 115 | 102 | 57 | 103 | 1 | 5 | PRK2 % activity remaining (PRK2): 43%; S6K1 % activity remaining (S6K1): 12%; SRPK1 % activity remaining (SRPK1): 31%; DYRK3 % activity remaining (DYRK3): 30%; PKD1 % activity remaining (PKD1): 97%; MLK1 inhibition (MLK1): ≥ 80%; MLK1 % activity remaining (MLK1): 8%; MAPKAP-K2 % activity remaining (MAPKAP-K2): 100%; MNK1 % activity remaining (MNK1): 64%; DYRK1A % activity remaining (DYRK1A): 9%; NEK6 % activity remaining (NEK6): 116%; MEKK1 % activity remaining (MEKK1): 66%; Lck % activity remaining (Lck): 34%; PDK1 % activity remaining (PDK1): 49%; Src % activity remaining (Src): 8%
Cc1nn(C)cc1-c1nc2c(-c3cnn(Cc4ccccc4)c3)c(Cl)cnc2[nH]1 [Compound 7a] | 36 | 62 | 90 | 3 | 26 | greater than 80% | 6 | 59 | 70 | 3 | 16 | 56 | 29 | 87 | 75 | 82 | 62 | 69 | 1 | 10 | PRK2 % activity remaining (PRK2): 42%; S6K1 % activity remaining (S6K1): 18%; SRPK1 % activity remaining (SRPK1): 73%; DYRK3 % activity remaining (DYRK3): 25%; PKD1 % activity remaining (PKD1): 76%; MLK1 inhibition (MLK1): greater than 80%; MLK1 % activity remaining (MLK1): 3%; MAPKAP-K2 % activity remaining (MAPKAP-K2): 84%; MNK1 % activity remaining (MNK1): 55%; DYRK1A % activity remaining (DYRK1A): 3%; NEK6 % activity remaining (NEK6): 64%; MEKK1 % activity remaining (MEKK1): 74%; Lck % activity remaining (Lck): 61%; PDK1 % activity remaining (PDK1): 52%; Src % activity remaining (Src): 9%
